Consider 13 molecules from patent publication US10053457B2, “Hydroxyalkyl-piperazine derivatives as CXCR3 receptor modulators” (IDORSIA PHARMACEUTICALS LTD, priority 2015, dated 2018).

Common to all, as to format: cell-based
One data set has as its target CXCR3 (Homo sapiens (Human), UniProt P49682). Description: Receptor internalization assay in human whole blood (CXCR3 surface expression on CD4 positive cells, CXCL10). The following applies: final CXCL10 9 nM, 30 min at 37° C., mean values. As for the experimental part: Diluted compounds are then mixed with an equal volume of CXCL10 (Peprotech) diluted in PBS. Anticoagulated venous human whole blood is added to the mixture, which is then incubated in a CO2 incubator at 37° C. to allow for ligand mediated receptor internalization (final CXCL10 concentration is 9 nM). After 30 min, the blood is mixed with fluorescently labeled CXCR3 and CD4 specific antibodies (Becton Dickinson) and incubated on ice for 10 minutes. Samples are then mixed with BD FACS Lysing Solution (Becton Dickinson) in order to eliminate red blood cells. After washing the cells with PBS containing 0.5% BSA, the samples are then analyzed in a flow cytometer (FACS Canto II, Becton Dickinson). For data analysis using FACSDiva software (Becton Dickinson), the mean fluorescence corresponding to CXCR3 cell surface expression was determined on CD4 positive cells. The program GraphPad Prism or similar software is used to fit the data to a single site dose response curve and to calculate IC50 values.
(§1) In the case where IC50 values have been determined several times for the same compound, mean values are given.

The target of another data set is hERG K channel (Homo sapiens (Human), UniProt Q12809). Description: hERG Q-Patch assay. The following applies: CHO cells expressing hERG, K+ tail current 3 min after application, mean of two or three experiments. On the procedure: Compounds are evaluated for block of the hERG K channel using CHO cells stably expressing the hERG gene (accession number U04270, bSys, Witterswil, Switzerland) and the QPatch robotic platform (Sophion, Ballerup, Denmark) in single-cell mode at room temperature. Cells are grown in culture flasks at 37° C. in 5% CO2, in culture medium (Ham's F-12 Nutrient Mixture, Invitrogen 21765-029) supplemented with 9% (v/v) fetal calf serum, 0.9% Penicillin/Streptomycin (10,000 U/mL, Invitrogen 15140148), 100 μg/mL Hygromycin B (Invitrogen 10687010). When the cells are ˜80% confluent (every 2-3 days), they are either split for further culture or used for electrophysiology. For further culture, cells are detached with 0.25% Trypsin EDTA solution (Invitrogen 25200-056) and a fraction of the cells (10-30%) is reseeded in culture medium. For electrophysiology, on the experimental day, cells are detached with 0.25% Trypsin EDTA solution and all cells are suspended in suspension medium (293 SFM II, Invitrogen 11686-029) supplemented with 20 mM HEPES and 0.04 mg/mL Trypsin inhibitor. Cells are kept in suspension medium at 32-35° C. in the QPatch robot until use, at which time aliquots are transferred to the extracellular solution (in mM: NaCl 150; KCl 4; CaCl2 1.2; MgCl2 1; HEPES 10; pH 7.4 with NaOH) containing 0.3% v/v DMSO and applied to the test plates. K^+ currents are measured with the patch-voltage-clamp technique in the whole-cell configuration with the internal solution (in mM: KCl, 140; NaCl, 10; MgCl2, 1; HEPES, 10: EGTA, 5; pH=7.2 with KOH). Currents are low-pass filtered using the internal Bessel filter of the QPatch robot with a cut-off frequency of 2 kHz and are digitized at 10 kHz. K^+ tail currents are produced from a holding voltage of −80 mV by a 500-ms depolarization to +20 mV followed by a 500-ms repolarization to −40 mV; tail current amplitudes are measured at the end of the repolarization to −40 mV. The pulse pattern is repeated every 10 sec during the experiment, baseline K^+ current is measured after 3 min in extracellular solution, test-solution containing compound is then applied, and K^+ current in presence of compound is measured 3 minutes after application to the cells. The respective test-solution is prepared by (1) dissolving the test-compound in pure DMSO, (2) diluting this DMSO solution in extracellular solution, and (3) adding further DMSO, such that the final test-solution has a concentration of either 300 nM or 3000 nM of the test-compound and contains 0.3% v/v DMSO. Compound effects are quantified as % block by dividing the current in presence of compound by the baseline current; two or three experiments are performed for each compound and the final value represents the mean of the results of each experiment.
On the technique in general: hERG is a cardiac potassium channel; its block is linked to QT prolongation.

The next data set addresses human CXCR3A (Homo sapiens (Human), UniProt P49682). The data set can be described thus: FLIPR assay (CXCL10-induced calcium signal). As to conditions: CHO-K1 cells expressing human CXCR3A coupled to Galpha(16); CXCL10 agonist 20 nM; mean values.
Description: as §1

pIC50: −log10 of the molar value.

hERG K channel, sequence (Q12809 whole entry): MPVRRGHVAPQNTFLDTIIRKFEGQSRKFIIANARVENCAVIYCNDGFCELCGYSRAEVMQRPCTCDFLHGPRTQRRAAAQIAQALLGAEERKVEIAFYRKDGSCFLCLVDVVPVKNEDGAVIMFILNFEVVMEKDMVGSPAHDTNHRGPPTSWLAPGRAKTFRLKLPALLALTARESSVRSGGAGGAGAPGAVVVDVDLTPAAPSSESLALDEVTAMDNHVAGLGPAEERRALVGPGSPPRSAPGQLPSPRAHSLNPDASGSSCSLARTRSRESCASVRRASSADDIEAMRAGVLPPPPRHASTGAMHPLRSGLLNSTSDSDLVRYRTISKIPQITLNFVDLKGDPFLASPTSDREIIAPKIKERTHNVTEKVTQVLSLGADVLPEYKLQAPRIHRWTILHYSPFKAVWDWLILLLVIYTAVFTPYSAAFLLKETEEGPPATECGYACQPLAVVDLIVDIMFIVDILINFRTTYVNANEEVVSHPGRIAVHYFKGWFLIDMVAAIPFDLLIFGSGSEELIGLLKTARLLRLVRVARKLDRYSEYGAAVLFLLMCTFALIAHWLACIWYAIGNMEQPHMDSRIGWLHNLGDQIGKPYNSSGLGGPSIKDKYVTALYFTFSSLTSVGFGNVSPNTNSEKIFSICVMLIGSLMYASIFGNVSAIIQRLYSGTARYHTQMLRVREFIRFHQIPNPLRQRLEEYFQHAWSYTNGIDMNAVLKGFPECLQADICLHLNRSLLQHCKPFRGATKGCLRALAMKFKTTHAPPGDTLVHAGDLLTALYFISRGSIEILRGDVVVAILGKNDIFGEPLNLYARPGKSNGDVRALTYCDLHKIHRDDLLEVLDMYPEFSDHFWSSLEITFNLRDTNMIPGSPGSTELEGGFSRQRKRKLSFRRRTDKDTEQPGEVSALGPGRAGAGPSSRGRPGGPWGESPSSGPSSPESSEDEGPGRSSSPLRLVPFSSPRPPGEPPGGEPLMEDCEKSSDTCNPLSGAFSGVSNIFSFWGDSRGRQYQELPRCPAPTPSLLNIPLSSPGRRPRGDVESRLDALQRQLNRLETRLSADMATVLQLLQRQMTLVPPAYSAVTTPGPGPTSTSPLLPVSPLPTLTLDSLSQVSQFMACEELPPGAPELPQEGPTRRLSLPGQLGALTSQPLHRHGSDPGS
human CXCR3A, sequence (P49682 whole entry): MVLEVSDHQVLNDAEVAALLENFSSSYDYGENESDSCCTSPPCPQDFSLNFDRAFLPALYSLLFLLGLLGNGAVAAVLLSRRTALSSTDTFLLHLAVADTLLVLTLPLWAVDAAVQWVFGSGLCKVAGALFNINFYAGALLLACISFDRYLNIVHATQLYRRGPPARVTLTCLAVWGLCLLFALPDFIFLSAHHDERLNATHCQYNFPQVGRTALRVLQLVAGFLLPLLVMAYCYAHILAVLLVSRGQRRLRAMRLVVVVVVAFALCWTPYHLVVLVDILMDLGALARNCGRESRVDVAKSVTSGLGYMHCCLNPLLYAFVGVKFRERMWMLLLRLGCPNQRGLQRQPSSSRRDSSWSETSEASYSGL
CXCR3, sequence (P49682 whole entry): as above

Turning to `O=C(Cn1ccc2cc(F)ccc21)N1CCN(c2sc(C(F)(F)F)nc2-c2cnc(C(F)(F)F)nc2)C[C@@H]1CO` [Example 14, 2-(5-Fluoro-indol-1-yl)-1-{(R)-2-hydroxymethyl-4-[2-trifluoromethyl-4-(2-trifluoromethyl-pyrimidin-5-yl)-thiazol-5-yl]-piperazin-1-yl}-ethanone], the pIC50 at CXCR3 was 6.70; on human CXCR3A it was 9.15. In addition, the “% block” value is 14% on hERG K channel (concentration 300 nM) and 62% on hERG K channel (concentration 3000 nM).

In the case of `COc1ccc2c(ccn2CC(=O)N2CCN(c3sc(C(F)(F)F)nc3-c3cnc(C(F)(F)F)nc3)C[C@@H]2CO)c1` [Example 15, 1-{(R)-2-Hydroxymethyl-4-[2-trifluoromethyl-4-(2-trifluoromethyl-pyrimidin-5-yl)-thiazol-5-yl]-piperazin-1-yl}-2-(5-methoxy-indol-1-yl)-ethanone], the pIC50 on CXCR3 is 5.78; at human CXCR3A, 8.64. In addition, the “% block” value on hERG K channel (concentration 300 nM) is on record as 8%; on hERG K channel (concentration 3000 nM), 35%.

In the case of `Cc1ncn(CC(=O)N2CCN(c3sc(C(F)(F)F)nc3-c3cnc(C(F)(F)F)nc3)C[C@@H]2CO)n1` [Example 16, 1-{(R)-2-Hydroxymethyl-4-[2-trifluoromethyl-4-(2-trifluoromethyl-pyrimidin-5-yl)-thiazol-5-yl]-piperazin-1-yl}-2-(3-methyl-[1,2,4]triazol-1-yl)-ethanone], the values for the pIC50 against CXCR3 and at human CXCR3A were 6.27 and 8.41, respectively. Further, the “% block” value at hERG K channel (concentration 300 nM) and at hERG K channel (concentration 3000 nM) was 1% each time.

For the molecule `COCc1ncn(CC(=O)N2CCN(c3sc(C(F)(F)F)nc3-c3cnc(C(F)(F)F)nc3)C[C@@H]2CO)n1` [Example 17, 1-{(R)-2-Hydroxymethyl-4-[2-trifluoromethyl-4-(2-trifluoromethyl-pyrimidin-5-yl)-thiazol-5-yl]-piperazin-1-yl}-2-(3-methoxymethyl-[1,2,4]triazol-1-yl)-ethanone], the figures for the negative logarithm of the IC50 (pIC50) against CXCR3 and at human CXCR3A were 5.89 and 8.23, respectively. In addition, the “% block” value worked out at 2% on hERG K channel (concentration 300 nM) and 6% at hERG K channel (concentration 3000 nM).

For `Cc1nc(-c2ncn(CC(=O)N3CCN(c4sc(C(F)(F)F)nc4-c4cnc(C(F)(F)F)nc4)C[C@@H]3CO)n2)no1` [Example 18, 1-{(R)-2-Hydroxymethyl-4-[2-trifluoromethyl-4-(2-trifluoromethyl-pyrimidin-5-yl)-thiazol-5-yl]-piperazin-1-yl}-2-[3-(5-methyl-[1,2,4]oxadiazol-3-yl)-[1,2,4]triazol-1-yl]-ethanone], the negative logarithm of the IC50 (pIC50) was 5.19 against CXCR3 and 6.29 on human CXCR3A. Further, the entries for the “% block” value at hERG K channel (concentration 300 nM) and at hERG K channel (concentration 3000 nM) were 6% and 13%, respectively.

In the case of `O=C(Cn1cnc(-c2ccccc2)n1)N1CCN(c2sc(C(F)(F)F)nc2-c2cnc(C(F)(F)F)nc2)C[C@@H]1CO` [Example 19, 1-{(R)-2-Hydroxymethyl-4-[2-trifluoromethyl-4-(2-trifluoromethyl-pyrimidin-5-yl)-thiazol-5-yl]-piperazin-1-yl}-2-(3-phenyl-[1,2,4]triazol-1-yl)-ethanone], the pIC50 against CXCR3 is 5.48; on human CXCR3A, 7.38. Moreover, the “% block” value amounted to 6% on hERG K channel (concentration 300 nM) and 41% on hERG K channel (concentration 3000 nM).

For the molecule `CC(=O)c1ncn(CC(=O)N2CCN(c3sc(C(F)(F)F)nc3-c3cnc(C(F)(F)F)nc3)C[C@@H]2CO)n1` [Example 20, 2-(3-Acetyl-[1,2,4]triazol-1-yl)-1-{(R)-2-hydroxymethyl-4-[2-trifluoromethyl-4-(2-trifluoromethyl-pyrimidin-5-yl)-thiazol-5-yl]-piperazin-1-yl}-ethanone], the pIC50 is 5.62 on CXCR3 and 8.19 at human CXCR3A. The “% block” value stood at 2% on hERG K channel (concentration 300 nM) and 3% on hERG K channel (concentration 3000 nM).

Take `Cc1ccn(CC(=O)N2CCN(c3sc(C(F)(F)F)nc3-c3cnc(C(F)(F)F)nc3)C[C@@H]2CO)n1` [Example 22, 1-{(R)-2-Hydroxymethyl-4-[2-trifluoromethyl-4-(2-trifluoromethyl-pyrimidin-5-yl)-thiazol-5-yl]-piperazin-1-yl}-2-(3-methyl-pyrazol-1-yl)-ethanone]: the pIC50 was 6.98 at CXCR3 and 8.80 at human CXCR3A. Also, the “% block” value at hERG K channel (concentration 300 nM) is reported as 4%; on hERG K channel (concentration 3000 nM), 15%.

As to `Cc1nc(C)n(CC(=O)N2CCN(c3sc(C(F)(F)F)nc3-c3cnc(C(F)(F)F)nc3)C[C@H]2CCO)n1` [Example 27, 2-(3,5-Dimethyl-[1,2,4]triazol-1-yl)-1-{(R)-2-(2-hydroxy-ethyl)-4-[2-trifluoromethyl-4-(2-trifluoromethyl-pyrimidin-5-yl)-thiazol-5-yl]-piperazin-1-yl}-ethanone], the pIC50 is 6.63 against CXCR3 and 8.28 on human CXCR3A. Moreover, the figures for the “% block” value at hERG K channel (concentration 300 nM) and on hERG K channel (concentration 3000 nM) were 1% and 4%, respectively.

With `O=C(Cn1cnc(C(F)(F)F)n1)N1CCN(c2sc(C(F)(F)F)nc2-c2cnc(C(F)(F)F)nc2)C[C@H]1CCO` [Example 28, 1-{(R)-2-(2-Hydroxy-ethyl)-4-[2-trifluoromethyl-4-(2-trifluoromethyl-pyrimidin-5-yl)-thiazol-5-yl]-piperazin-1-yl}-2-(3-trifluoromethyl-[1,2,4]triazol-1-yl)-ethanone], the pIC50 against CXCR3 was 6.67; on human CXCR3A, 8.96. Besides, the results for the “% block” value at hERG K channel (concentration 300 nM) and on hERG K channel (concentration 3000 nM) were 6% and 40%, respectively.

Turning to `O=C(Cn1cnc(C2CCC2)n1)N1CCN(c2sc(C(F)(F)F)nc2-c2cnc(C(F)(F)F)nc2)C[C@H]1CCO` [Example 29, 2-(3-Cyclobutyl-[1,2,4]triazol-1-yl)-1-{(R)-2-(2-hydroxy-ethyl)-4-[2-trifluoromethyl-4-(2-trifluoromethyl-pyrimidin-5-yl)-thiazol-5-yl]-piperazin-1-yl}-ethanone], the figures for the negative-log IC50 (pIC50) against CXCR3 and on human CXCR3A were 6.80 and 8.26, respectively. Further, the “% block” value turned out to be 4% at hERG K channel (concentration 300 nM) and 38% at hERG K channel (concentration 3000 nM).

On to `CC(C)(C)c1ncn(CC(=O)N2CCN(c3sc(C(F)(F)F)nc3-c3cnc(C(F)(F)F)nc3)C[C@H]2CCO)n1` [Example 30, 2-(3-tert-Butyl-[1,2,4]triazol-1-yl)-1-{(R)-2-(2-hydroxy-ethyl)-4-[2-trifluoromethyl-4-(2-trifluoromethyl-pyrimidin-5-yl)-thiazol-5-yl]-piperazin-1-yl}-ethanone], for which the negative logarithm of the IC50 (pIC50) at CXCR3 is 6.77; on human CXCR3A, 8.36. Also, the results for the “% block” value on hERG K channel (concentration 300 nM) and on hERG K channel (concentration 3000 nM) were −2% and 25%, respectively.

In the case of `O=C(Cn1cnc(C2CC2)n1)N1CCN(c2sc(C(F)(F)F)nc2-c2cnc(C(F)(F)F)nc2)C[C@H]1CCO` [Example 31, 2-(3-Cyclopropyl-[1,2,4]triazol-1-yl)-1-{(R)-2-(2-hydroxy-ethyl)-4-[2-trifluoromethyl-4-(2-trifluoromethyl-pyrimidin-5-yl)-thiazol-5-yl]-piperazin-1-yl}-ethanone], the results for the pIC50 against CXCR3 and at human CXCR3A were 7.13 and 8.36, respectively. The “% block” value worked out at 2% at hERG K channel (concentration 300 nM) and 23% at hERG K channel (concentration 3000 nM).

One may read the pIC50 as −log10 of the IC50, conventionally taken in molar units.
